Values joined by “and” are separate entries in the source; they are usually repeats but may differ in a detail not shown here. Equal entries are not always repeated. Where two headings read alike, the source gives them in different places.
How the values were obtained:
LOX IMVI melanoma = experiment: Cytotoxicity, LOX IMVI; assay type: cell-based; settings: Homo sapiens, read-out: Log10 GI50, LOX IMVI (converted)
Source text: (§1) A total of 55 cell lines from the leukemia, non-small cell lung cancer, small cell lung cancer, colon cancer, CNS cancer, melanoma, ovarian cancer, and renal cancer panels were examined.

SNB-75 CNS cancer = experiment: Cytotoxicity, SNB-75; assay type: cell-based; settings: Homo sapiens, read-out: Log10 GI50, SNB-75 (converted)
Source text: as §1

[1] = system: HOP-18 non-small cell lung cancer; experiment: Cytotoxicity, HOP-18; assay type: cell-based; settings: Homo sapiens, read-out: Log10 GI50, HOP-18 (converted)
Source text: as §1

SK-MEL-2 melanoma = experiment: Cytotoxicity, SK-MEL-2; assay type: cell-based; settings: Homo sapiens, read-out: Log10 GI50, SK-MEL-2 (converted)
Source text: as §1

IGROVI ovarian cancer = experiment: Cytotoxicity, IGROVI; assay type: cell-based; settings: read-out: Log10 GI50, IGROVI (converted)
Source text: as §1

Water solubility = assay type: physicochemical
HCT-15 colon cancer = experiment: Cytotoxicity, HCT-15; assay type: cell-based; settings: Homo sapiens, read-out: Log10 GI50, HCT-15 (converted)
Source text: as §1

[2] = system: DMS 273 small cell lung cancer; experiment: Cytotoxicity, DMS 273; settings: Hydrochloride
HCT-116 colon cancer = experiment: Cytotoxicity, HCT-116; assay type: cell-based; settings: Homo sapiens, read-out: Log10 GI50, HCT-116 (converted)
Source text: as §1

K-562 leukemia = experiment: Cytotoxicity, K-562; assay type: cell-based
Source text: as §1

tubulin = experiment: Inhibition of tubulin polymerization (turbidimetry); assay type: biochemical, bovine; settings: Hydrochloride
XF498 CNS cancer = experiment: Cytotoxicity, XF498; assay type: cell-based; settings: Homo sapiens, read-out: Log10 GI50, XF498 (converted)
Source text: as §1

[3] = system: DMS114 small cell lung cancer; experiment: Cytotoxicity, DMS114; assay type: cell-based; settings: Homo sapiens, DMS-114; read-out: Log10 GI50, DMS114 (converted)
Source text: as §1

[4] = system: NCI-H460 non-small cell lung cancer; experiment: Cytotoxicity, NCI-H460; assay type: cell-based; settings: Homo sapiens, read-out: Log10 GI50, NCI-H460 (converted)
Source text: as §1

[5] = system: EKCK non-small cell lung cancer; experiment: Cytotoxicity, EKCK; assay type: cell-based; settings: read-out: Log10 GI50, EKCK (converted)
Source text: as §1

M14 melanoma = experiment: Cytotoxicity, M14; settings: read-out: cytotoxicity GI50, M14, 50% growth inhibition, average of two determinations, 8640 min, Hydrochloride
HT29 colon cancer = experiment: Cytotoxicity, HT29 (Table XI panel); assay type: cell-based; settings: Homo sapiens, HT-29; read-out: Log10 GI50, HT29 (converted)
Source text: as §1

RXF-393 renal cancer = experiment: Cytotoxicity, RXF-393; assay type: cell-based; settings: Homo sapiens, read-out: Log10 GI50, RXF-393 (converted)
Source text: as §1

SW-620 colon cancer = experiment: Cytotoxicity, SW-620; assay type: cell-based; settings: Homo sapiens, read-out: Log10 GI50, SW-620 (converted)
Source text: as §1

OVCAR-8 ovarian cancer = experiment: Cytotoxicity, OVCAR-8; assay type: cell-based; settings: Homo sapiens, read-out: Log10 GI50, OVCAR-8 (converted)
Source text: as §1

UACC-257 melanoma = experiment: Cytotoxicity, UACC-257; assay type: cell-based; settings: Homo sapiens, read-out: Log10 GI50, UACC-257 (converted)
Source text: as §1

SF-268 CNS cancer = experiment: Cytotoxicity, SF-268; assay type: cell-based; settings: Homo sapiens, SF-268, read-out: Log10 GI50, SF-268 (converted)
Source text: as §1

DLD-1 colon cancer = experiment: Cytotoxicity, DLD-1; assay type: cell-based; settings: Homo sapiens, read-out: Log10 GI50, DLD-1 (converted)
Source text: as §1

SNB-19 CNS cancer = experiment: Cytotoxicity, SNB-19; assay type: cell-based; settings: Homo sapiens, read-out: Log10 GI50, SNB-19 (converted)
Source text: as §1

SN12C renal cancer = experiment: Cytotoxicity, SN12C; assay type: cell-based; settings: Homo sapiens, read-out: Log10 GI50, SN12C (converted)
Source text: as §1

[6] = system: A549/ATCC non-small cell lung cancer; experiment: Cytotoxicity, A549/ATCC; assay type: cell-based; settings: Homo sapiens, read-out: Log10 GI50, A549/ATCC (converted)
Source text: as §1

U251 CNS cancer = experiment: Cytotoxicity, U251; assay type: cell-based; settings: Homo sapiens, U-251; read-out: Log10 GI50, U251 (converted)
Source text: as §1

OVCAR-4 ovarian cancer = experiment: Cytotoxicity, OVCAR-4; assay type: cell-based; settings: Homo sapiens, read-out: Log10 GI50, OVCAR-4 (converted)
Source text: as §1

RPMI-8226 leukemia = experiment: Cytotoxicity, RPMI-8226; assay type: cell-based; settings: Homo sapiens, read-out: Log10 GI50, RPMI-8226 (converted)
Source text: as §1

SNB-78 CNS cancer = experiment: Cytotoxicity, SNB-78; assay type: cell-based; settings: Homo sapiens, read-out: Log10 GI50, SNB-78 (converted)
Source text: as §1

[7] = system: HOP-62 non-small cell lung cancer; experiment: Cytotoxicity, HOP-62; assay type: cell-based; settings: Homo sapiens, read-out: Log10 GI50, HOP-62 (converted)
Source text: as §1

KM12 colon cancer = experiment: Cytotoxicity, KM12; assay type: cell-based; settings: Homo sapiens, read-out: Log10 GI50, KM12 (converted)
Source text: as §1

786-0 renal cancer = experiment: Cytotoxicity, 786-0; assay type: cell-based; settings: Homo sapiens, read-out: Log10 GI50, 786-0 (converted)
Source text: as §1

MALME-3M melanoma = experiment: Cytotoxicity, MALME-3M; assay type: cell-based; settings: Homo sapiens, read-out: Log10 GI50, MALME-3M (converted)
Source text: as §1

## COc1cc(CNc2ccc(C)cc2)cc(OC)c1OC.Cl [110a, 4-Methyl-N-(3,4,5-trimethoxybenzyl)aniline Hydrochloride]
LOX IMVI melanoma
  GI50: 0.851 µM
SNB-75 CNS cancer
  GI50: 0.389 µM
[1]
  GI50: 37.2 µM
SK-MEL-2 melanoma
  GI50: 0.132 µM
IGROVI ovarian cancer
  GI50: 0.708 µM
Water solubility
  water solubility (in words): water soluble
HCT-15 colon cancer
  GI50: 0.245 µM
[2]
  Log10 GI50, DMS 273: < -7.00 and -7.03
[2]; read-out: cytotoxicity GI50, DMS 273, 50% growth inhibition, average of two determinations, 8640 min, 8640 min
  GI50: 0.104 µM
HCT-116 colon cancer
  GI50: 0.575 µM
K-562 leukemia; Homo sapiens, K562, read-out: Log10 GI50, K-562 (converted)
  GI50: < 0.1 µM
K-562 leukemia; Hydrochloride
  Log10 GI50, K-562: -7.00
tubulin; Table X, different glutamate preparation (1M monosodium glutamate and GTP), read-out: inhibn of tubulin polymn IC50 (±SD)
  IC50: 3.5 µM
tubulin; benzylanilines, Table X series, read-out: tubulin polymerization IC50
  IC50: 3.5 µM
XF498 CNS cancer
  GI50: 0.468 µM
[3]
  GI50: 0.427 µM
[4]
  GI50: 0.214 µM
[5]
  GI50: 0.741 µM
M14 melanoma
  GI50: 0.292 µM
HT29 colon cancer
  GI50: 0.347 µM
RXF-393 renal cancer
  GI50: 0.112 µM
SW-620 colon cancer
  GI50: 0.11 µM
OVCAR-8 ovarian cancer
  GI50: 0.759 µM
UACC-257 melanoma
  GI50: > 100 µM
SF-268 CNS cancer
  GI50: 0.912 µM
DLD-1 colon cancer
  GI50: 0.575 µM
SNB-19 CNS cancer
  GI50: 0.295 µM
SN12C renal cancer
  GI50: 0.851 µM
[6]
  GI50: 0.513 µM
U251 CNS cancer
  GI50: 0.331 µM
OVCAR-4 ovarian cancer
  GI50: 21.4 µM
RPMI-8226 leukemia
  GI50: 0.437 µM
SNB-78 CNS cancer
  GI50: 1.1 µM
[7]
  GI50: 0.282 µM
KM12 colon cancer
  GI50: 0.759 µM
786-0 renal cancer
  GI50: 0.324 µM
MALME-3M melanoma
  GI50: 0.468 µM

Reference: patent US5430062A, “Stilbene derivatives as anticancer agents” (priority 1993, dated 1995)
